Data published in PubChem BioAssay AID1597 (NINDS Approved Drug Screening Program, 2009).
Inconclusive results are not listed.

These compounds were tested on Drosophila SCA1 polyglutamine model, toxicity suppression (assay: Reduction of SCA1 polyglutamine toxicity, EC50 from dose response in whole drosophila (AID 1597)).
With `CCCCCCCCCCCCCCCC(=O)OC/C=C(C)/C=C/C=C(C)/C=C/C1=C(C)CCCC1(C)C` the EC50 was 275 nM.
Compound `NS(=O)(=O)c1cc(C2(O)NC(=O)c3ccccc32)ccc1Cl` (centres undefined) has an EC50 of 5000 nM.
`C=C1C2CC[C@H]3[C@]4(C)C[C@H](OC5OC(CO)C(OS(=O)(=O)O)C(OS(=O)(=O)O)C5OC(=O)CC(C)C)C[C@@H](C(=O)O)[C@H]4CC[C@]3(C2)[C@H]1O` (some centres undefined) gave an EC50 of 225 nM.
In the case of `C[C@@H]1O[C@@H](O[C@H]2[C@H](Oc3cc(O)c4c(c3)O[C@H](c3ccc(O)cc3)CC4=O)O[C@H](CO)[C@@H](O)[C@@H]2O)[C@H](O)[C@H](O)[C@H]1O`, the EC50 is reported as 5000 nM.
`C[N+](C)(C)CC(=O)[O-]` showed an EC50 of 3000 nM.
With `NC(Cc1cc(I)c(Oc2ccc(O)c(I)c2)c(I)c1)C(=O)O` (centres undefined) the EC50 was 5000 nM.
Compound `Cc1cc(C(C)(C)C)cc(C)c1CC1=NCCN1` has an EC50 of 250 nM.
For `C[N+](C)(C)CCOC(N)=O`, the EC50 was 3000 nM.
`CC(=O)OCC(=O)[C@H]1CCC2C3CCC4=CC(=O)CC[C@]4(C)C3CC[C@@]21C` (some centres undefined) showed an EC50 of 3000 nM.
In the case of `CN1CCOC(c2ccccc2)c2ccccc2C1` (centres undefined), the EC50 is reported as 50 nM.
Work on `CC(N)CCCC(C)(C)O` (centres undefined) yielded an EC50 of 50 nM.
In the case of `OCC(S)CS` (centres undefined), the EC50 is reported as 300 nM.
Compound `N#C/C(=C\c1ccc(O)cc1)C(=O)O` has an EC50 of 50 nM.
Work on `C[C@@H]1CC2C3CCC4=CC(=O)C=C[C@]4(C)[C@@]3(F)[C@@H](O)C[C@]2(C)[C@@]1(O)C(=O)COP(=O)(O)O` (some centres undefined) yielded an EC50 of 750 nM.
